Experimental data as given in patent publication US12065699B2, “Monitoring and diagnosis for immunotherapy, and design for therapeutic agent” (Repertoire Genesis Incorporation, priority 2016, dated 2024).

Experiments:
[1] = tested on: CD8 positive cells; assay: intracellular interferon γ staining (flow cytometry); format: cell-based, human; set-up: key: ++ refers to a sample found to produce interferon γ in 3/3; + refers to a sample found to produce interferon γ in ⅓ to ⅔; settings: 5×10^5 lymphocytes, peptide 1 μg/ml, 4 hours
Experimental: (§1) Peripheral blood of healthy individuals with the same HLA-A*02:01 as the subject sample (tumor patient) was used. An experiment of reactivity was conducted using peptides that were manufactured therefor.
The obtained samples were subjected to intracellular interferon γ staining. 5×10^5 lymphocytes were stimulated and cultured for 4 hours in a 200 μl medium. Neoantigen peptides and control peptides were added so that the final concentration was 1 μg/ml for stimulation. An unstimulated control was also prepared. BioLegend Brefeldin A Solution (1,000×) was added so that the final concentration would be 5.0 μg/ml during stimulation. After the completion of culturing, the cells were collected and stained for 30 minutes at 4° C. with Fixable Viability Dye eFluor780 (eBioscience 65-0865-18), FITC labeled anti-CD4 antibody (BD Pharmingen™557307), ECD labeled anti-CD8 antibody (BECKMAN COULTER 41116015) and PerCP-CY5.5 labeled anti-CD3 antibody (Biolegend 300430).
The cells were treated for 15 minutes with Intraprep permeabilization reagent (Immunotech, Marseille, France). The cells were stained for 15 minutes with PE labeled anti-IL-2 antibody (BD Pharmingen™559334), Alexa700 labeled anti-TNFα antibody (BD Pharmingen™557996), and Pacific Blue labeled anti-IFN-γ antibody (Biolegend 502522)
After suspension into PBS containing 0.5% PFA, measurement was taken with Gallios flow cytometer (BECKMAN COULTER). For intracellular flow cytometry sorting, CD8 positive cells were used to analyze the production of interferon γ.

[2] = tested on: peripheral blood of healthy individuals with HLA-A*02:01; assay: interferon γ ELISPOT assay; format: cell-based, human; set-up: key: ++ refers to a sample found to produce interferon γ in 3/3; + refers to a sample found to produce interferon γ in ⅓ to ⅔; settings: 1×10^5 cells stimulated 16 hours; HLA-A*02:01 healthy donor peripheral blood
Experimental: as §1
The conducted assay performed interferon γ ELISPOT and intracellular interferon γ staining. For the interferon γ ELISPOT, MABTECH anti-human IFN-γ mAb 1-D1K, purified (3420-3-250) was used as a capture antibody. In addition, MILLIPORE MultiScreen HTS 96-well Filtration Plate was used.
Briefly stated, the following was performed. • (1) Cytokine (interferon-γ in this example) specific monoclonal antibodies (MABTECH anti-human IFN-γ mAb 1-D1K, purified (3420-3-250)) were immobilized on the solid layer surface. MILLIPORE MultiScreen HTS 96-well Filtration Plate was used in this example. • (2) 1×10^5 cells were stimulated and cultured for 16 hours after washing. The secreted cytokines, i.e., interferon-γ, were bound to capture antibodies (Detection antibody; MABTECH anti-human IFN-γ mAb 7-B6-1, biotinylated (3420-6-250)) that were around the producing cells. After removing the cells by washing, anti-interferon γ antibodies for detection were added.
For biotin labeled detection antibodies, enzyme labeled streptavidin (MABTECH Streptavidin-HRP (3310-9)) was added. • (3) Next, BD ELISPOT AEC Substrate Set (551951) was used for coloration. This method allows the spot corresponding to the position where interferon γ (cytokine) producing cell was located to be seen. The obtained spots were counted with a Carl Zeiss KS ELISPOT (Minerva Tech). The frequency of positive cells was recorded. (Intracellular Interferon γ Staining)

Substance | IFNγ secretion Intra [1] | IFNγ secretion ELISPOT [2]
27 (KVLQLLEPEI) [compound 27] | + | –
FTYSSALKV [pepID 41] | ++ | ++
36 (ILQEYREDFV) [compound 36] | + | –
43 (FQYSSPALPT) [compound 43] | – | ++
FLALECLAHL [pepID 14] | ++ | ++
21 (QLLEPEISFL) [compound 21] | ++ | –
18 (ICFLALECLAH) [compound 18] | – | ++
30 (ALYPFEFRS) [compound 30] | + | –
NISSRIHTV [pepID 33] | ++ | +
42 (KTFTYSSAL) [compound 42] | – | ++
12 (NLKKLLVF) [compound 12] | – | ++
7 (VLNINDNEPV) [compound 7] | ++ | –
